Key:
mPOMC promoter = test: NHR-promoter luciferase screen, mPOMC promoter; type: cell-based, mouse; details: for Results of assays of transcription factor (+/- ligand) with mPOMC: Table 6d, luciferase activity relative to control (control = 1.00); for Luc. act., normalized to lacZ / Normalized Luc. act., normalized to control: mPOMC promoter, HR component with or without ligand; for Normalized Luc. act., normalized to control: relative to control
Method: (§1) The use, feasibility, and reproducibility of the functional NHR-promoter screen in a 48-well format have been tested validated. Briefly, there were co-expressed 50 ng of each NHR/NHR homodimer or NHR/RXR heterodimer with 100 ng promoter/luciferase construct and 50 ng of LacZ (as a control for transfection efficiency) in CV-1 cells using Fugene HD (Roche) as a transfection reagent (alternatively or additionally, a CMV-YFP construct can be used as a transfection control). Each of the nuclear hormone receptors that were used in these experiments was cloned into a pcDNA3.1 vector and comprised a C-terminally linked V5H6 tag. Twenty-four hours after transfection, appropriate ligands were added, where applicable, (see Table 5 for various ligands and concentrations and after 48 hrs, samples were assayed for luciferase and LacZ activity. To measure for luciferase activity 15 ul of sample was added to 30 ul of luciferase buffer (20 mM tricine, 1.07 mM MgCarbonate, 2.67 mM MgSulfate, 0.1 mM Naz-EDTA, 5 mM DTT, 5 mM ATP, 0.15 mg/ml CoA, 0.5 mM Luciferin), mixed briefly, and run in a Perkin Elmer Victor 5 luminometer. Thus, the functional NHR-promoter screen was used to observe the transcriptional activity of 29 promoters from various physiological pathways including inflammation, lipid and sugar metabolism, cholesterol transport, xenobiotic metabolism, and circadian rhythm.
(§2) The promoters that facilitate transcription of the indicated gene products that were tested using the protocols described herein are listed in the first row of the table. The nuclear hormone receptors and, where applicable, ligands that were assayed for their transcriptional effects on the promoters are listed in the first column of the table. The data represent the luciferase activity of each sample normalized to both the lacZ activity of that sample and to a control, e.g., no NHR or ligand, as customary in the art. As described previously, these normalizations allow the transcriptional activity of each reporter cell to be compared to other samples.
(§3) Tables 7-40 show the transcriptional effects of the hormone receptors, and, where applicable, ligands (orphan receptors are screened without ligand), on each individual promoter. […] The control data of each table are shown in their last rows.

hPOMC promoter = test: NHR-promoter luciferase screen, hPOMC promoter; type: cell-based, human; details: for Luc. act., normalized to lacZ / Normalized Luc. act., normalized to control: hPOMC promoter, HR/ligand component; for hPOMC promoter reporter activity: transcription factor +/- ligand, control = 1.00; for luciferase/LacZ, hPOMC (selected results): hPOMC promoter-luciferase, NHR +/- ligand, control = 1.0
Method: as §1, §2, §3

RevErba promoter = test: NHR-promoter luciferase screen, RevErba (RVRa) promoter; type: cell-based; design: key to mRevErba promoter reporter activity / Normalized Luc. act., normalized to control: luciferase activity normalized to lacZ and to control (no NHR/ligand); details: for Luc. act., normalized to lacZ / Normalized Luc. act., normalized to control / negative reciprocal of normalized Luc. act. (fold repression; Table 33) / normalized Luc. act. on a logarithmic scale (column without head, Table 33): RVRa promoter; for Luc. act., normalized to lacZ / Normalized Luc. act., normalized to control: HR component without or with ligand; for negative reciprocal of normalized Luc. act. (fold repression; Table 33): given only where activity is below control; for normalized Luc. act. on a logarithmic scale (column without head, Table 33): log10 of activity normalized to control; for mRevErba promoter reporter activity: transcription factor +/- ligand, control = 1.00
Method: Briefly, there were co-expressed 50 ng of each NHR/NHR homodimer or NHR/RXR heterodimer with 100 ng promoter/luciferase construct and 50 ng of LacZ (as a control for transfection efficiency) in CV-1 cells using Fugene HD (Roche) as a transfection reagent (alternatively or additionally, a CMV-YFP construct can be used as a transfection control). Each of the nuclear hormone receptors that were used in these experiments was cloned into a pcDNA3.1 vector and comprised a C-terminally linked V5H6 tag.
as §2
The control data of each table are shown in their last rows.

hPPARg1 promoter = test: NHR-promoter luciferase screen, hPPARg1 promoter; type: cell-based, human; details: for Luc. act., normalized to lacZ / Normalized Luc. act., normalized to control: PPARG1 promoter, hormone receptor with or without its ligand; for Normalized Luc. act., normalized to control: relative to control; for Results of assays of transcription factor (+/- ligand) with hPPARg1: Table 6d, luciferase activity relative to control (control = 1.00)
Method: as §1, §2, §3

hG6PD promoter = test: NHR-promoter luciferase screen, hG6PD promoter; type: cell-based, human; details: for Luc. act., normalized to lacZ / Normalized Luc. act., normalized to control: G6PD promoter reporter, co-transfected HR, without or with its ligand; for Normalized Luc. act., normalized to control: relative to control; for luciferase activity normalized to lacZ activity and to a control, hG6PD: hG6PD promoter-luciferase, CV-1 cells, NHR +/- ligand, control = 1.00
Method: as §1, §2, §3

Substance | Results of assays of transcription factor (+/- ligand) with mPOMC (mPOMC promoter) | Luc. act., normalized to lacZ (mPOMC promoter) | Normalized Luc. act., normalized to control (mPOMC promoter) | Luc. act., normalized to lacZ (hPOMC promoter) | Normalized Luc. act., normalized to control (hPOMC promoter) | hPOMC promoter reporter activity (hPOMC promoter) | Luc. act., normalized to lacZ (RevErba promoter) | Normalized Luc. act., normalized to control (RevErba promoter) | negative reciprocal of normalized Luc. act. (fold repression; Table 33) (RevErba promoter) | normalized Luc. act. on a logarithmic scale (column without head, Table 33) (RevErba promoter) | mRevErba promoter reporter activity (RevErba promoter) | Luc. act., normalized to lacZ (hPPARg1 promoter) | Normalized Luc. act., normalized to control (hPPARg1 promoter) | Results of assays of transcription factor (+/- ligand) with hPPARg1 (hPPARg1 promoter) | Luc. act., normalized to lacZ (hG6PD promoter) | Normalized Luc. act., normalized to control (hG6PD promoter) | luciferase activity normalized to lacZ activity and to a control, hG6PD (hG6PD promoter) | luciferase/LacZ, hPOMC (selected results) (hPOMC promoter)
AR: Androsterone Receptor (NR3C4), cDNA driver | 1.05 | 72.2 | 1.0 | 1.8 | 0.4 | 0.42 | 13.5 | 0.5 | −2.065 | −0.31 | 0.48 | 90.6 | 1.3 | 1.31 | 41.5 | 1.1 | 1.11 | 
ERR1: Estrogen Related Receptor α (NR3B1, ERRa), cDNA driver | 1.00 | 68.9 | 1.0 | 2.7 | 0.6 | 0.63 | 33.3 | 1.2 |  | 0.08 | 1.19 | 59.1 | 0.9 | 0.86 | 59.1 | 1.6 | 1.58 | 
GR: Glucocorticoid Receptor (NR3C1), cDNA driver | 0.50 | 34.5 | 0.5 | 0.7 | 0.2 | 0.16 | 12.3 | 0.4 | −2.269 | −0.36 | 0.44 | 37.2 | 0.5 | 0.54 | 22.3 | 0.6 | 0.60 | 0.2
LXRa: Liver X Receptor α (NR1H3), cDNA driver | 1.70 | 117.1 | 1.7 | 6.8 | 1.6 | 1.58 |  |  |  |  |  | 80.8 | 1.2 | 1.17 | 60.5 | 1.6 | 1.62 | 
NR4a1: NR4a1 (NR4A1; NUR77), nuclear hormone receptor cDNA driver | 3.58 | 246.9 | 3.6 | 15.3 | 3.6 | 3.57 | 24.6 | 0.9 | −1.1361 | −0.06 | 0.88 | 129.6 | 1.9 | 1.88 | 77.6 | 2.1 | 2.07 | 3.6
PNR: Photoreceptor-specific Nuclear Receptor (NR2E3), cDNA driver | 0.81 | 56.0 | 0.8 | 1.5 | 0.3 | 0.34 | 7.1 | 0.3 | −3.936 | −0.60 | 0.25 | 45.9 | 0.7 | 0.67 | 45.9 | 1.2 | 1.23 | 
PPARa: Peroxisome proliferator activated receptor α (NR1C1), cDNA driver | 1.13 | 77.6 | 1.1 | 2.4 | 0.6 | 0.57 | 52.1 | 1.9 |  | 0.27 | 1.86 | 57.6 | 0.8 | 0.84 | 55.6 | 1.5 | 1.49 | 
PPARg: Peroxisome proliferator activated receptor γ (NR1C3), cDNA driver | 1.57 | 108.0 | 1.6 | 2.8 | 0.6 | 0.65 | 40.6 | 1.5 |  | 0.16 | 1.45 | 75.7 | 1.1 | 1.10 | 66.0 | 1.8 | 1.77 | 0.6
RXRa: Retinoic X Receptor α (NR2B1), cDNA driver | 0.99 | 68.0 | 1.0 | 2.6 | 0.6 | 0.61 | 26.26 | 0.9 | −1.065 | −0.03 | 0.94 | 45.6 | 0.7 | 0.66 | 45.6 | 1.2 | 1.22 | 
SF-1: Steroidogenic Factor 1 (NR5A1, SF1), cDNA driver | 8.37 | 577.5 | 8.4 | 13.1 | 3.1 | 3.06 | 125.0 | 4.5 |  | 0.65 | 4.47 | 124.1 | 1.8 | 1.80 | 124.1 | 3.3 | 3.32 | 
TLX: Tailless (homolog of drosophila) (NR2E1), cDNA driver | 0.74 | 51.1 | 0.7 | 2.6 | 0.6 | 0.60 | 13.5 | 0.5 | −2.079 | −0.32 | 0.48 | 107.9 | 1.6 | 1.57 | 107.9 | 2.9 | 2.89 | 

Source: US20110263454A1, “Methods of Identifying Functional Characteristics of Promoters, Transcription Modifying Proteins and Transcription Modulating Agents” (Salk Institute for Biological Studies, priority 2008, published 2011)
